Columns and labels:
Type in all cases: biochemical
[1] = biological target: T1, HsPINK1 (Homo sapiens, UniProt Q9BXM7, M318A); assay: ubiquitin phosphorylation by heavy membranes, pSer65 Western blot; details: 15 uM ubiquitin, pH 7.4, 30 C
T1 construct: gene PINK1; HsPINK1 expressed transiently (pcDNA5d3) in HeLa PINK1-/- cells; heavy membrane fraction after oligomycin/antimycin treatment

[2] = biological target: T2, HsPINK1 (Homo sapiens, UniProt Q9BXM7, M318G); assay: as above; details: 1 mM KTP, 15 uM ubiquitin, pH 7.4, 30 C
T2 construct: gene PINK1; HsPINK1 expressed transiently (pcDNA5d3) in HeLa PINK1-/- cells; heavy membrane fraction after oligomycin/antimycin treatment
T2 sequence (Q9BXM7 78-581 M318G): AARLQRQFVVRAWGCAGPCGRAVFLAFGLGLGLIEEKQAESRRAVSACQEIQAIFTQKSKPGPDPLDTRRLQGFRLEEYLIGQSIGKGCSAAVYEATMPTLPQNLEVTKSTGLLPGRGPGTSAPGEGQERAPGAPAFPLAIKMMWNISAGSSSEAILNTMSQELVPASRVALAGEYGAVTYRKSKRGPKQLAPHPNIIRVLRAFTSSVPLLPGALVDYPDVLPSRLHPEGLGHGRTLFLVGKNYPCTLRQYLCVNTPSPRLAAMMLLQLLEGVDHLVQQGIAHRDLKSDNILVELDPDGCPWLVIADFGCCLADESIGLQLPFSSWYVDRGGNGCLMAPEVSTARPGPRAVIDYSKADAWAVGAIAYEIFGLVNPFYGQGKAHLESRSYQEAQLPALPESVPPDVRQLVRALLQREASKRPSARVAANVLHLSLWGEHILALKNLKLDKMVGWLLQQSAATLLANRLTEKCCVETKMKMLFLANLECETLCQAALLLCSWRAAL

[3] = biological target: T3, PhPINK1 (residues 115 to 575) (Pediculus humanus, UniProt E0W1I1); assay: ubiquitin phosphorylation, Phos-tag SDS-PAGE; details: 1 mM ATP, 15 uM ubiquitin, 10 mM MgCl2, pH 7.4, 22 C
T3 construct: gene Pink1; residues 115-575, kinase domain with N- and C-terminal extensions; E. coli Rosetta2; N-terminal GST tag with 3C protease site in vector; autophosphorylated monomer for thermal shift, lambda-phosphatase-treated homo-dodecamer (six dimers) for cryo-EM
T3 sequence (E0W1I1 115-575): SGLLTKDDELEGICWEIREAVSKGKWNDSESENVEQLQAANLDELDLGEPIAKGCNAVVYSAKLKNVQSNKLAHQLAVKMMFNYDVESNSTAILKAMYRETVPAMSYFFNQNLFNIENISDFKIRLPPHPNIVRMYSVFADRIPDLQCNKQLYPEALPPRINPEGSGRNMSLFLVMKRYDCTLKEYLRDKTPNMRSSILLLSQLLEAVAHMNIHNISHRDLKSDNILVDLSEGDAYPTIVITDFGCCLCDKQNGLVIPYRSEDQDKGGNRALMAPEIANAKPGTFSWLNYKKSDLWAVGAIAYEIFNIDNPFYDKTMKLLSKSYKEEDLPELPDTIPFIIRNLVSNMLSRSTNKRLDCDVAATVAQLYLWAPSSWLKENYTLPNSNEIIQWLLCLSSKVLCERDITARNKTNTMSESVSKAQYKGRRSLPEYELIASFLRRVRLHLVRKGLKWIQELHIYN

T1 sequence (Q9BXM7 78-581 M318A): as the sequence (Q9BXM7 78-581 M318G) above, with G241A counted along it

| SMILES | ubiquitin phosphorylation by heavy membranes, pSer65 Western blot ([1]; 1 mM KTP) | ubiquitin phosphorylation by heavy membranes, pSer65 Western blot [2] | ubiquitin phosphorylation by heavy membranes, pSer65 Western blot ([1]; 1 mM ATP) | ubiquitin phosphorylation, Phos-tag SDS-PAGE [3] |
| --- | --- | --- | --- | --- |
| O=P(O)(O)OP(=O)(O)OP(=O)(O)OC[C@H]1O[C@@H](n2cnc3c(NCc4ccco4)ncnc32)[C@H](O)[C@@H]1O [KTP] | both mutants were able to use KTP instead of ATP to generate phospho-ubiquitin | both mutants were able to use KTP instead of ATP to generate phospho-ubiquitin | – | – |
| Nc1ncnc2c1ncn2[C@@H]1O[C@H](COP(=O)(O)OP(=O)(O)OP(=O)(O)O)[C@@H](O)[C@H]1O [ATP] | – | – | HsPINK1 M318A, is active with both ATP and KTP | Time course ubiquitin phosphorylation assay using WT PhPINK1 in the presence of ATP |
